Measurements from patent US4448777A, “1-Phenylindazole-3-one compounds, process and intermediates for their preparation, and pharmaceutical compositions containing same” (Kali-Chemie Pharma GmbH, priority 1981, dated 1984).

What follows are compounds tested on passive cutaneous anaphylaxis (PCA) (assay: Inhibition of passive cutaneous anaphylaxis (PCA test) in rats). Settings: Rattus norvegicus, po, 10 minutes before intraperitoneal ovoalbumin and Evans blue, blue spot diameter after 30 minutes, read-out: P.C.A. Inhibition ED50.
Format: in vivo
Procedure: For example, the substances have an inhibiting action on the release of endogenic mediators, from mast cells or basophilic leucocytes, which leads to allergic reactions. The doses to be used vary, of course, depending upon the nature of the substance used, upon the mode of administration and upon the condition to be treated. In general, however, satisfactory results are obtained in animal experiments with peroral doses of between 0.05 and 75 mg. per kg. of body weight. Thus, the new compounds have a specific inhibiting action in the PCA test (passive cutaneous anaphylaxis)in rats which is described below.
Description of the test method to determine the inhibition of passive cutaneous anaphylasis (PCA test, see Arch.int.pharmacology 252 (1981) 316-326)
To prepare the IgE-antiovoalbumin serum, used in this test, by the method of Mota (Immunology 7, (1964) 681) and J. Goose (Immunology 16 (1969) 749), male Wistar rats of 200-250 g. body weight were sensitised by subcutaneous injection of 1 mg. of ovoalbumin and 1 ml. of Bordetella pertussis suspension ("Vaxicoq" Merieux 3×10^10 organisms/ml). After 14 days, the animals are exsanguinated and the blood is centrifuged. The antiserum thus obtained is stored at […].
Non-sensitised rats were injected with in each case 0.1 ml. of antiserum into the skin at in each case four different sites on their shaven backs. After 72 hours, a solution of the test compound, or, for comparison, only the solvent, is administered orally, and 10 minutes later 5 mg. of ovoalbumin and 5 mg. of blue dye (Evans blue) in 0.9% strength sodium chloride solution are administered intraperitoneally. After 30 minutes, the animals are sacrificed and the diameters of the blue spots formed at the sites injected with the antiserum are measured. The inhibiting effect of the test substance is determined from the size of the blue spots which occur. […]

Row | Compound | ED50 [mg/kg]
1 | O=c1c2ccccc2n(-c2ccccc2)n1CCCCN1CCN(c2ccccc2)CC1 [Example 12] | 22
2 | O=c1c2ccccc2n(-c2ccccc2)n1CCCN1CCN(c2ccc(F)cc2)CC1 [Example 15] | 10.6
3 | O=c1c2ccccc2n(-c2ccccc2)n1CCCCN1CCN(c2ccc(F)cc2)CC1 [Example 17] | 17.9
4 | O=c1c2ccccc2n(-c2ccccc2)n1CCCCN1CCN(c2ccccn2)CC1 [Example 18] | 25
5 | O=c1c2ccccc2n(-c2ccccc2)n1CCCN1CCN(c2ccccn2)CC1 [Example 19] | 11.5
6 | Cc1ccnc(N2CCN(CCCn3c(=O)c4ccccc4n3-c3ccccc3)CC2)c1 [Example 21] | 19.2
7 | COc1ccccc1N1CCN(CCCCn2c(=O)c3ccc(Cl)cc3n2-c2ccccc2)CC1 [Example 26] | 22
8 | COc1ccc2c(c1)c(=O)n(CCCCN1CCN(c3cc(C)ccn3)CC1)n2-c1ccccc1 [Example 28] | 5.7
9 | COc1ccc2c(c1)c(=O)n(CCCCN1CCN(c3ccccc3OC)CC1)n2-c1ccccc1 [Example 29] | 14
10 | Cc1ccnc(N2CCN(CCCCn3c(=O)c4ccccc4n3-c3cccc(C(F)(F)F)c3)CC2)c1 [Example 32] | 6.6

Same assay, conditions: oral, 10 minutes before intraperitoneal ovoalbumin and Evans blue, blue spot diameter after 30 minutes

Row | Compound | P.C.A. Inhibition ED50 [mg/kg]
11 | Cc1ccnc(N2CCN(CCCCn3c(=O)c4ccccc4n3-c3ccccc3)CC2)c1 [Example 20] | 7.5
12 | Cc1ccnc(N2CCN(CCCCn3c(=O)c4ccccc4n3-c3ccccc3)CC2)c1 [Example 49] | 15.5
